From PubChem BioAssay (NCI)
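Briefly, cells in 96-well plates were exposed to five compound concentrations for 48 h, and endpoints were estimated by linear interpolation. The concentration for 50% growth inhibition is given as GI50. TGI denotes the concentration required for complete inhibition of growth.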

Tests used:
Experiment in all cases: growth of human tumour cells (NCI), 48 h
[1] = tested on: IGROV1 ovarian
[2] = tested on: SR leukemia
[3] = tested on: HOP-62 NSCLC
[4] = tested on: NCI-H23 lung
[5] = tested on: UO-31 renal
[6] = tested on: ACHN renal
[7] = tested on: OVCAR-8 ovarian
[8] = tested on: U251 CNS
[9] = tested on: MALME-3M melanoma
[10] = tested on: A498 renal

Row | SMILES | GI50 [1] [µM] | TGI [1] [µM] | TGI [2] [µM] | GI50 [3] [µM] | TGI [3] [µM] | GI50 [4] [µM] | TGI [4] [µM] | TGI [5] [µM] | GI50 [6] [µM] | TGI [6] [µM] | GI50 [7] [µM] | TGI [7] [µM] | GI50 [8] [µM] | TGI [8] [µM] | GI50 [9] [µM] | TGI [9] [µM] | GI50 [10] [µM] | TGI [10] [µM] | GI50 [2] [µM] | GI50 [5] [µM]
1 | CC(=O)/C(C)=N/NC(=O)c1ccccc1O | > 10 | > 100 | > 100 | > 100 | > 100 | > 100 | > 100 | > 10 | > 100 | > 100 | > 100 | > 100 | > 100 | > 100 | > 100 | > 100 | > 10 | > 100 |  | 
2 | COc1cc2c(cc1OC)C(CC(=O)NN=C(C)C)NCC2 (stereo not drawn) |  | > 100 | > 100 |  | > 100 |  | > 100 | > 100 |  | > 100 |  | > 100 |  | > 100 |  | > 100 |  | > 100 |  | 
3 | CC(=O)[O-].CCN(CC)c1ccc(C=NCCN=Cc2ccc(N(CC)CC)cc2[O-])c([O-])c1.[Mn+3] | 29.6 | 80.3 | 67.4 | 19.2 | 39.1 | 19.7 | 37.6 | > 100 | > 100 | > 100 | 24.5 | 57 | 15.4 | 29.3 | 18.4 | 35.2 | 22.9 | 53.1 | 22.3 | > 100
4 | CN1CCN(CCCOc2ccc3nc(Nc4ccc(Cl)c(C(F)(F)F)c4)ccc3c2)CC1 | 13.2 | 30.1 | 10.7 | 14.9 | 29.6 | 13.9 | 29.3 | 29.4 | 12.5 | 32 | 16.4 | 32.4 | 12.5 | 26.2 | 11.3 | 28.4 | 13.7 | 28.8 | 2.7 | 14.5
5 | COC1=CC(=O)c2nc(-c3cccc(C)n3)[nH]c2C1=O | 20.5 | 47 | > 100 | 18.7 | 35.9 | 28.3 | > 100 | > 100 | 25.1 | 70.3 | 24.7 | 78.2 | 20.4 | 41.7 | 20.8 | 64.3 | 16.4 | 35.2 | 30.6 | 26.4
6 | CCCN1CCC(=O)N(CCC(F)(F)C(F)(F)C(F)(F)C(F)(F)C(F)(F)C(F)(F)F)C1=S |  | > 100 | > 100 |  | > 100 |  | > 100 | > 100 |  | > 100 |  | > 100 |  | > 100 |  | > 100 |  | > 100 |  | 
7 | O=C1OC(c2ccccc2)=N/C1=C\c1cccc2ccccc12 |  | > 100 | > 100 |  | > 100 |  | > 100 | > 100 |  | > 100 |  | > 100 |  | > 100 |  | > 100 |  | > 100 |  | 
8 | COC(C(O)CO)C(O)C(O)C(=O)NNc1ccccc1 (stereo not drawn) |  | > 100 | > 100 |  | > 100 |  | > 100 | > 100 |  | > 100 |  | > 100 |  | > 100 |  | > 100 |  | > 100 |  | 
9 | C=C1C(=O)O[C@@H]2/C=C(\C)CC/C=C(/COC(C)=O)C[C@@H](OC(C)=O)[C@@H]12 |  | 28.1 | 7.39 |  | 72.6 |  | 32.5 | 22.3 |  | 17 |  | > 55.3 |  | 36.7 |  | 8.85 |  | 36.6 |  | 
10 | CCCCC(O)(c1ccc(Cl)cc1)C(CN1CCOCC1)c1ccc(Cl)cc1 (stereo not drawn) | 8.68 | 33 | 32.3 | 16.3 | 34.5 | 10.6 | 28.7 | 26.2 | 14.4 | 28.5 | 15.7 | 42 | 13.6 | 27.5 | 15.6 | 33.8 | 11.1 | 24.1 | 12.5 | 12.2
11 | N#CCN1C(=O)c2cccc3cc([N+](=O)[O-])cc(c23)C1=O |  | > 100 | 41.8 |  | > 100 |  | > 100 | > 100 |  | > 100 |  | > 100 |  | > 100 |  | 92.7 |  | > 100 |  | 
12 | COC(=O)[C@H](C)NC(=O)NC(=O)NC(=O)CI | 17.1 | 35.4 | 5.94 | 17.2 | 32.6 | 16.8 | 36.9 | 20.1 | 6.76 | 21 | 16.6 | 33.9 | 17.3 | 31.4 | 2.07 | 5.13 | 15.4 | 30.4 | 2.43 | 6.83
13 | CC1CC[C@]2(C(=O)O)CCC3(C)C(=CC(=O)C4[C@@]5(C)CCC(=O)C(C)(C)C5CC[C@]43C)[C@@H]2[C@H]1C (stereo partly drawn) |  | > 100 | 37.5 |  | 46.3 |  | 79.3 | 38.1 |  | > 100 |  | > 100 |  | 98.8 |  | 80.3 |  | > 100 |  | 
14 | Cc1cc(S(=O)(=O)Nc2nnc(-c3ccccc3)c(-c3ccccc3)n2)c(SCC(N)=O)cc1Cl | > 100 | > 100 | 47.6 | 52.5 | > 100 | 78.7 | > 100 | > 100 | > 100 | > 100 | 32.5 | 87 | 31.1 | 78.4 | 30.2 | > 100 | > 100 | > 100 | 24.1 | > 100
15 | CCOc1ccccc1NC(=O)CC(C(=O)OC)C(=O)C(=O)OC (stereo not drawn) |  | > 100 | > 100 |  | > 100 |  | > 100 | > 100 |  | > 100 |  | > 100 |  | > 100 |  | > 100 |  | > 100 |  | 
16 | CC(C)(C)c1cc(Br)c(O)c(CN(Cc2cc(C(C)(C)C)cc(Br)c2O)C2CCCCC2)c1 |  | 28.7 | 25.6 |  | 28.5 |  | 26.3 | 27.4 |  | 28.1 |  | 28.3 |  | 26.8 |  | 24.1 |  | 26.3 |  | 
